In patent US20060069132A1, “Azolecarboxamide herbicides” (priority 2004, published 2006):

Key:
barnyardgrass [1] = assay: Test C flooded paddy test; format: in vivo, Echinochloa crus-galli
Summary of the method: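 Injury scored visually against controls on a 0 (no effect) to 100 (complete control) scale, 12 to 14 days after treatment in greenhouse. Flooded paddy plants treated at 2-leaf stage; postemergence plants at 1- to 4-leaf stage, 2 to 18 cm tall.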

cocklebur = assay: Test B pre-/postemergence herbicide test; format: in vivo, Xanthium strumarium; details: for Cocklebur plant response rating: postemergence, scale 0 (no effect) to 100 (complete control)
Summary of the method: (§1)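 Species tested were Echinochloa crus-galli, Ipomoea coccinea, Xanthium strumarium and Oryza sativa, treated both before emergence and at the 1- to 4-leaf stage; rice and barnyardgrass were also tested under flooding at 2 leaves. Greenhouse incubation lasted 13–15 days before visual 0–100 scoring.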

giant foxtail = assay: Test B pre-/postemergence herbicide test; format: in vivo, Setaria faberi; details: for Foxtail, Giant plant response rating: postemergence, scale 0 (no effect) to 100 (complete control)
Summary of the method: (§2)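 Visual rating, 0 (no effect) to 100 (complete control), versus untreated controls after 13–15 d in greenhouse. Pre- and postemergence applications (postemergence plants 2–18 cm, 1–4 leaves); flooded paddy arm at 2-leaf stage. Compounds in non-phytotoxic solvent plus surfactant.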

blackgrass = assay: Test B postemergence herbicide test; format: in vivo, Alopecurus myosuroides; details: postemergence, visual rating, scale 0 (no effect) to 100 (complete control)
Summary of the method: (§3)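 Plants grow to 1- to 4-leaf stage (2–18 cm) for postemergence spraying, or to 2-leaf stage for the paddy test. Formulated compound is applied. Greenhouse holding lasts 13–15 days. Response is scored visually relative to controls, 0 no effect to 100 complete control; a dash means no result.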

rice [2] = assay: Test C flooded paddy test; format: in vivo, Oryza sativa
Summary of the method: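 Plants were grown to the 1- to 4-leaf stage (2–18 cm) and then treated postemergence, or grown to the 2-leaf stage for the flooded paddy test. They were held in a greenhouse for 12 to 14 days and then scored by eye against controls, where 0 is no effect and 100 is complete control.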

velvetleaf = assay: Test B pre-/postemergence herbicide test; format: in vivo, Abutilon theophrasti; details: for Velvetleaf plant response rating: postemergence, scale 0 (no effect) to 100 (complete control)
Summary of the method: as §2

rice [3] = assay: Test B flooded paddy test; format: in vivo, Oryza sativa; details: 1000 g ai/ha, visual rating, scale 0 to 100 (0 no effect, 100 complete control), 13 to 15 days
Summary of the method: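 Read-out: visual comparison with controls, scored 0 to 100, where 100 means complete control and 0 no effect. Formulated chemicals were applied postemergence to plants 2–18 cm tall (1- to 4-leaf), or to flooded-paddy plants at the 2-leaf stage, then held 13 to 15 days under glass.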

[4] = test system: small flower umbrella sedge; assay: Test B flooded paddy test; format: in vivo, Cyperus difformis; details: 1000 g ai/ha, visual rating, scale 0 to 100 (0 no effect, 100 complete control), 13 to 15 days
Summary of the method: as §3

pigweed = assay: Test B pre-/postemergence herbicide test; format: in vivo, Amaranthus retroflexus; details: for Pigweed plant response rating: postemergence, scale 0 (no effect) to 100 (complete control)
Summary of the method: as §2

Surinam grass = assay: Test B pre-/postemergence herbicide test; format: in vivo, Urochloa decumbens; details: for Surinam Grass plant response rating: postemergence, scale 0 (no effect) to 100 (complete control)
Summary of the method: as §2

barnyardgrass [5] = assay: Test B pre-/postemergence herbicide test; format: in vivo, Echinochloa crus-galli; details: for Barnyardgrass plant response rating: postemergence, scale 0 (no effect) to 100 (complete control)
Summary of the method: as §1

morningglory = assay: Test B pre-/postemergence herbicide test; format: in vivo, Ipomoea coccinea; details: for Morningglory plant response rating: postemergence, scale 0 (no effect) to 100 (complete control)
Summary of the method: as §1

barnyardgrass [6] = assay: Test B flooded paddy test; format: in vivo, Echinochloa crus-galli; details: 1000 g ai/ha, visual rating, scale 0 to 100 (0 no effect, 100 complete control), 13 to 15 days
Summary of the method: as §3

[7] = test system: smallflower umbrella sedge; assay: Test C flooded paddy test; format: in vivo, Cyperus difformis
wheat = assay: Test B postemergence herbicide test; format: in vivo, Triticum aestivum; set-up: key to Wheat plant response rating: 0 = no effect, 100 = complete control; details: postemergence, visual rating, scale 0 (no effect) to 100 (complete control)
Summary of the method: (§4)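 Visual ratings, 0 (no effect) to 100 (complete control), made versus controls after 13–15 d greenhouse. Paddy plants treated at 2-leaf stage; postemergence plants at 1- to 4-leaf stage, 2–18 cm tall.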

large crabgrass = assay: Test B pre-/postemergence herbicide test; format: in vivo, Digitaria sanguinalis; details: for Crabgrass, Large plant response rating: postemergence, scale 0 (no effect) to 100 (complete control)
Summary of the method: as §2

ducksalad [8] = assay: Test B flooded paddy test; format: in vivo, Heteranthera limosa; details: 1000 g ai/ha, visual rating, scale 0 to 100 (0 no effect, 100 complete control), 13 to 15 days
Summary of the method: as §3

rice [9] = assay: Test B pre-/postemergence herbicide test; format: in vivo, Oryza sativa; details: 0 = no effect, 100 = complete control, preemergence
Summary of the method: as §2

corn = assay: Test B pre-/postemergence herbicide test; format: in vivo, Zea mays; details: for Corn plant response rating: postemergence, scale 0 (no effect) to 100 (complete control)
Summary of the method: as §2

ducksalad [10] = assay: Test C flooded paddy test; format: in vivo, Heteranthera limosa
wild oat = assay: Test B postemergence herbicide test; format: in vivo, Avena fatua; details: postemergence, visual rating, scale 0 (no effect) to 100 (complete control)
Summary of the method: as §4

lambsquarters = assay: Test B pre-/postemergence herbicide test; format: in vivo, Chenopodium album; details: for Lambsquarters plant response rating: postemergence, scale 0 (no effect) to 100 (complete control)
Summary of the method: as §2

[11] = 62 g ai/ha, scale 0 to 100 (0 no effect, 100 complete control)
[12] = 125 g ai/ha, scale 0 to 100 (0 no effect, 100 complete control)
[13] = 250 g ai/ha, scale of 0 to 100, 0 is no effect, 100 is complete control
[14] = 500 g ai/ha, visual rating after 12 to 14 days, scale 0 to 100 (0 no effect, 100 complete control)
[15] = 125 g ai/ha, 0 = no effect, 100 = complete control, preemergence
[16] = 500 g ai/ha, visual rating, 0 = no effect, 100 = complete control, preemergence

With CCc1nc(C(C)(C)C)sc1C(=O)Nc1cccc(C(=O)N(C)C)c1 [Compound 228] the “Barnyardgrass plant response rating” value (barnyardgrass [1]; [11]) was 80, the “Barnyardgrass plant response rating” value (barnyardgrass [1]; [12]) was 85 and the “Barnyardgrass plant response rating” value (barnyardgrass [1]; [13]) was 95. The “Plant response rating, Barnyardgrass” value (barnyardgrass [1]; [14]) was 95, the “Cocklebur plant response rating (0 to 100 scale)” value (cocklebur; [15]) was 30 and the “Plant response rating, Cocklebur” value (cocklebur; [16]) was 80. The “Cocklebur plant response rating” value (cocklebur; 125 g ai/ha, visual rating) was 30, the “Cocklebur plant response rating” value (cocklebur; 500 g ai/ha, visual rating) was 80 and the “Foxtail, Giant plant response rating (0 to 100 scale)” value (giant foxtail; [15]) was 70. The “Plant response rating, Foxtail, Giant” value (giant foxtail; [16]) was 100, the “Foxtail, Giant plant response rating” value (giant foxtail; 125 g ai/ha, visual rating) was 30 and the “Foxtail, Giant plant response rating” value (giant foxtail; 500 g ai/ha, visual rating) was 50. For the same compound, the “Blackgrass plant response rating” value (blackgrass; 125 g ai/ha) was 30, the “Blackgrass plant response rating” value (blackgrass; 500 g ai/ha) was 40 and the “Rice plant response rating” value (rice [2]; [11]) was 75. For the same compound, the “Rice plant response rating” value (rice [2]; [12]) was 80, the “Rice plant response rating” value (rice [2]; [13]) was 80 and the “Plant response rating, Rice” value (rice [2]; [14]) was 85. For the same compound, the “Velvetleaf plant response rating (0 to 100 scale)” value (velvetleaf; [15]) was 100, the “Plant response rating, Velvetleaf” value (velvetleaf; [16]) was 100 and the “Velvetleaf plant response rating” value (velvetleaf; 125 g ai/ha, visual rating) was 60. For the same compound, the “Velvetleaf plant response rating” value (velvetleaf; 500 g ai/ha, visual rating) was 80, the “Rice plant response rating” value (rice [3]) was 90 and the “Sedge, Umbrella plant response rating” value [4] was 80. For the same compound, the “Pigweed plant response rating (0 to 100 scale)” value (pigweed; [15]) was 90, the “Plant response rating, Pigweed” value (pigweed; [16]) was 100 and the “Pigweed plant response rating” value (pigweed; 125 g ai/ha, visual rating) was 50. For the same compound, the “Pigweed plant response rating” value (pigweed; 500 g ai/ha, visual rating) was 80, the “Surinam Grass plant response rating (0 to 100 scale)” value (Surinam grass; [15]) was 60 and the “Plant response rating, Surinam Grass” value (Surinam grass; [16]) was 100. The “Surinam Grass plant response rating” value (Surinam grass; 125 g ai/ha, visual rating) was 20, the “Surinam Grass plant response rating” value (Surinam grass; 500 g ai/ha, visual rating) was 40 and the “Barnyardgrass plant response rating (0 to 100 scale)” value (barnyardgrass [5]; [15]) was 80. The “Plant response rating, Barnyardgrass” value (barnyardgrass [5]; [16]) was 100, the “Barnyardgrass plant response rating” value (barnyardgrass [5]; 125 g ai/ha, visual rating) was 30 and the “Barnyardgrass plant response rating” value (barnyardgrass [5]; 500 g ai/ha, visual rating) was 70. For the same compound, the “Morningglory plant response rating (0 to 100 scale)” value (morningglory; [15]) was 10, the “Plant response rating, Morningglory” value (morningglory; [16]) was 40 and the “Morningglory plant response rating” value (morningglory; 125 g ai/ha, visual rating) was 70. The “Morningglory plant response rating” value (morningglory; 500 g ai/ha, visual rating) was 80, the “Barnyardgrass plant response rating” value (barnyardgrass [6]) was 90 and the “Sedge, Umbrella plant response rating” value [7, 11] was 80. For the same compound, the “Sedge, Umbrella plant response rating” value [7, 12] was 80, the “Sedge, Umbrella plant response rating” value [7, 13] was 80 and the “Plant response rating, Sedge, Umbrella” value [7, 14] was 85. The “Wheat plant response rating” value (wheat; 125 g ai/ha) was 30, the “Wheat plant response rating” value (wheat; 500 g ai/ha) was 40 and the “Crabgrass, Large plant response rating (0 to 100 scale)” value (large crabgrass; [15]) was 60. For the same compound, the “Plant response rating, Crabgrass, Large” value (large crabgrass; [16]) was 100, the “Crabgrass, Large plant response rating” value (large crabgrass; 125 g ai/ha, visual rating) was 20 and the “Crabgrass, Large plant response rating” value (large crabgrass; 500 g ai/ha, visual rating) was 40. The “Ducksalad plant response rating” value (ducksalad [8]) was 90, the “Rice plant response rating (0 to 100 scale)” value (rice [9]; 125 g ai/ha) was 80 and the “Plant response rating, Rice” value (rice [9]; 500 g ai/ha, visual rating) was 90. The “Corn plant response rating (0 to 100 scale)” value (corn; [15]) was 60, the “Plant response rating, Corn” value (corn; [16]) was 80 and the “Corn plant response rating” value (corn; 125 g ai/ha, visual rating) was 10. For the same compound, the “Corn plant response rating” value (corn; 500 g ai/ha, visual rating) was 30, the “Ducksalad plant response rating” value (ducksalad [10]; [11]) was 80 and the “Ducksalad plant response rating” value (ducksalad [10]; [12]) was 85. For the same compound, the “Ducksalad plant response rating” value (ducksalad [10]; [13]) was 90, the “Plant response rating, Ducksalad” value (ducksalad [10]; [14]) was 90 and the “Oat, Wild plant response rating” value (wild oat; 125 g ai/ha) was 40. For the same compound, the “Oat, Wild plant response rating” value (wild oat; 500 g ai/ha) was 50, the “Lambsquarters plant response rating (0 to 100 scale)” value (lambsquarters; [15]) was 100 and the “Plant response rating, Lambsquarters” value (lambsquarters; [16]) was 100. The “Lambsquarters plant response rating” value (lambsquarters; 125 g ai/ha, visual rating) was 70 and the “Lambsquarters plant response rating” value (lambsquarters; 500 g ai/ha, visual rating) was 80.
